# Biological target: 3CL Protease (Severe acute respiratory syndrome coronavirus 2, UniProt P0DTD1)
# Assay: 3CL Protease enzymatic activity assay (BPS Bioscience Assay Kit #78043-1, fluorescence)
# Type: biochemical, SARS-CoV-2
# Settings: Table A; 30 min preincubation, 40 μM substrate, 4 hours at room temperature; read-out: IC50, nM (3CL Protease enzymatic activity)
# Description: For determination of 3CL Protease enzymatic activity was used Assay Kit of BPS Bioscience, San Diego, CA (Catalog #78043-1).
# All samples and controls should be tested in duplicate. • 1) Just before use, dilute 0.5 M DTT 500 times into the 3CL Protease Assay Buffer to obtain a DTT concentration of 1 mM. For example, add 10 μl of 0.5 M DTT to 5 ml of assay buffer. Prepare enough DTT-containing buffer as required for the assay. Store the remaining assay buffer at −20° C. • 2) Thaw the 3CL Protease on ice. Briefly spin the tube containing the enzyme to recover the full content of the tube. Note: 3CL Protease enzyme is sensitive to freeze/thaw cycles. […] Note: The exact concentration and volume of enzyme is lot-specific and will be indicated on the tube. Calculate required dilution from the information in the tube. It may be desirable to dilute the enzyme serially to avoid using large amounts of protease assay buffer for the dilution. • 4) Add 30 μl of diluted 3CL Protease to the wells designated as “Positive Control,” “Inhibitor Control,” and “Test Inhibitor.” Add 30 μl of Assay Buffer (containing 1 mM DTT) to the “Blank” wells. • 5) Dilute the 50 μg GC376 in 200 μl of Assay Buffer to obtain a 500 μM solution. Add 10 μl of GC376 (500 μM) to the wells labeled “Inhibitor Control”. Aliquot and store the remaining solution at −80° C. • 6) Prepare the Test Inhibitor. The final concentration of DMSO in the assay should not exceed 1%. If the Test Inhibitor is dissolved in DMSO, make a 100-fold higher concentration of the compound than the highest desired concentration. Then make a 20-fold dilution in 1× Assay Buffer (containing DTT). At this step the compound concentration is 5-fold higher than the final concentration. If the test inhibitor is dissolved in water, make a 5-fold higher concentration of the test compound than the final desired concentration in the Assay buffer (containing DTT). Add 10 μl of Test Inhibitor to each well designated “Test Inhibitor”. • 7) Diluent Solution (no inhibitor): add 10 μl of assay buffer (if the test compound is water soluble and was diluted in assay buffer) or 10 μl of 5% DMSO diluted in assay buffer (if DMSO was used to dissolve the test inhibitor) to “Blank” and “Positive Control” wells.
# • 8) Preincubate for 30 min at room temperature with slow shaking. • 9) Dilute the 25 μl of 3CL Protease substrate (10 mM) in 1.25 ml of the Assay Buffer containing DTT, to make a […] solution. The final concentration of the 3CL Protease substrate in a 50 μl reaction is 40 μM. • 10) Start the reaction by adding 10 μl of the substrate solution to all the wells. Seal the plate with the plate sealer and incubate for 4 hours at room temperature with slow shaking. • 11) Measure the fluorescence intensity in a microtiter plate-reader fluorometer (Tecan Spark Cyto) capable of excitation at a wavelength 360 nm and detection of emission at a wavelength 460 nm. The fluorescence intensity can also be measured kinetically. The “Blank” value is subtracted from all other values. • The % inhibition was then used to calculate the IC50 values.
row,Structure (SMILES),IC50
1,"COc1cccc2oc(C(=O)N3C[C@H]4[C@@H]([C@H]3C(=O)N[C@H](C#N)Cc3cc5cc(C)ccc5[nH]c3=O)C4(C)C)cc12 [Compound 196, (1R,2S,5S)—N—((S)-1-Cyano-2-(6-methyl-2-oxo-1,2-dihydroquinolin-3-yl)ethyl)-3-(4-methoxybenzofuran-2-carbonyl)-6,6-dimethyl-3-azabicyclo[3.1.0]hexane-2-carboxamide]",≥ 1000 nM
2,"Cc1ccc2[nH]c(=O)c(C[C@@H](C#N)NC(=O)[C@@H]3[C@@H]4[C@H](CN3C(=O)Cc3cc(C(F)(F)F)no3)C4(C)C)cc2c1 [Compound 193, (1R,2S,5S)—N—((S)-1-Cyano-2-(6-methyl-2-oxo-1,2-dihydroquinolin-3-yl)ethyl)-6,6-dimethyl-3-(2-(3-(trifluoromethyl)isoxazol-5-yl)acetyl)-3-azabicyclo[3.1.0]hexane-2-carboxamide]",≥ 1000 nM
3,"Cc1ccc2[nH]c(=O)c(CC(C#N)NC(=O)[C@H](Cc3cc(F)c(F)cc3F)NC(=O)[C@@H](NS(=O)(=O)CC(F)(F)F)C(C)(C)C)cc2c1 (stereo partly drawn) [Compound 166, (2S)—N-((2S)-1-((1-Cyano-2-(6-methyl-2-oxo-1,2-dihydroquinolin-3-yl)ethyl)amino)-1-oxo-3-(2,4,5-trifluorophenyl)propan-2-yl)-3,3-dimethyl-2-((2,2,2-trifluoroethyl)sulfonamido)butanamide]",500 to 1000 nM
4,"CC(C)(C)[C@H](NC(=O)C(F)(F)F)C(=O)N1C[C@H]2[C@@H]([C@H]1C(=O)NC(C#N)Cc1cc3c([nH]c1=O)CCCC3)C2(C)C (mixture of isomers) [Compound 121, (1R,2S,5S)—N-(1-Cyano-2-(2-oxo-1,2,5,6,7,8-hexahydroquinolin-3-yl)ethyl)-3-((S)-3,3-dimethyl-2-(2,2,2-trifluoroacetamido)butanoyl)-6,6-dimethyl-3-azabicyclo[3.1.0]hexane-2-carboxamide]",250 to 500 nM
5,"Cc1ccc2[nH]c(=O)c(C[C@@H](C#N)NC(=O)[C@@H]3C4[C@H](CN3C(=O)[C@@H](Nc3ccnc(C)n3)C(C)(C)C)C4(C)C)cc2c1 (stereo in doubt) [Compound 159, (1R,2S,5S)—N—((S)-1-Cyano-2-(6-methyl-2-oxo-1,2-dihydroquinolin-3-yl)ethyl)-3-((S)-3,3-dimethyl-2-((2-methylpyrimidin-4-yl)amino)butanoyl)-6,6-dimethyl-3-azabicyclo[3.1.0]hexane-2-carboxamide]",≥ 1000 nM
6,"Cc1ccc2[nH]c(=O)c(C[C@@H](C#N)NC(=O)[C@@H]3[C@@H]4[C@H](CN3C(=O)[C@@H](NC(=O)C(F)(F)F)C(C)(C)C)C4(C)C)c(C)c2c1 [Compound 178, (1R,2S,5S)—N—((S)-1-Cyano-2-(4,6-dimethyl-2-oxo-1,2-dihydroquinolin-3-yl)-ethyl)-3-((S)-3,3-dimethyl-2-(2,2,2-trifluoroacetamido)butanoyl)-6,6-dimethyl-3-azabicyclo[3.1.0]hexane-2-carboxamide]",100 to 250 nM
7,"Cc1ccc2[nH]c(=O)c(CC(C#N)N(C)C(=O)[C@@H]3[C@H]4[C@H](CN3C(=O)[C@@H](NC(=O)C(F)(F)F)C(C)(C)C)C4(C)C)cc2c1 (stereo partly drawn) [Compound 205, (1S,2S,5S)-N-[1-cyano-2-(6-methyl-2-oxo-1H-quinolin-3-yl)ethyl]-3-[(2S)-3,3-dimethyl-2-[(2,2,2-trifluoroacetyl)amino]butanoyl]-N,6,6-trimethyl-3-azabicyclo[3.1.0]hexane-2-carboxamide]",≥ 1000 nM
8,"Cn1cccc(CC(C#N)NC(=O)[C@@H]2C3[C@H](CN2C(=O)[C@@H](NC(=O)C(F)(F)F)C(C)(C)C)C3(C)C)c1=O (stereo in doubt) [Compound 112, (1R,2S,5S)—N-(1-Cyano-2-(1-methyl-2-oxo-1,2-dihydropyridin-3-yl)ethyl)-3-((S)-3,3-dimethyl-2-(2,2,2-trifluoroacetamido)butanoyl)-6,6-dimethyl-3-azabicyclo[3.1.0]hexane-2-carboxamide]",≥ 1000 nM
9,"Cc1ccc2[nH]c(=O)c(C[C@H](C#N)NC(=O)C3C4C(CN3C(=O)[C@H](NC(=O)C(C)C)C(C)(C)C)C4(C)C)cc2c1 (stereo in doubt) [Compound 204, (1S)—N-[(1R)-1-cyano-2-(6-methyl-2-oxo-1H-quinolin-3-yl)ethyl]-3-[(2R)-3,3-dimethyl-2-(2-methylpropanoylamino)butanoyl]-6,6-dimethyl-3-azabicyclo[3.1.0]hexane-2-carboxamide]",50 to 100 nM
10,"Cc1cc2cc(CC(C#N)NC(=O)[C@@H]3C4[C@H](CN3C(=O)[C@@H](NC(=O)C(F)(F)F)C(C)(C)C)C4(C)C)c(=O)[nH]c2cc1C (stereo in doubt) [Compound 145, (1R,2S,5S)—N-(1-cyano-2-(6,7-dimethyl-2-oxo-1,2-dihydroquinolin-3-yl)ethyl)-3-((S)-3,3-dimethyl-2-(2,2,2-trifluoroacetamido)butanoyl)-6,6-dimethyl-3-azabicyclo[3.1.0]hexane-2-carboxamide]",50 to 100 nM
11,"Cc1ccc2[nH]c(=O)c(CC(C#N)NC(=O)[C@H](Cc3ccccc3)NC(=O)[C@@H](NS(=O)(=O)CC(F)(F)F)C(C)(C)C)cc2c1 (stereo partly drawn) [Compound 164, (2S)—N-((2S)-1-((1-Cyano-2-(6-methyl-2-oxo-1,2-dihydroquinolin-3-yl)ethyl)amino)-1-oxo-3-phenylpropan-2-yl)-3,3-dimethyl-2-((2,2,2-trifluoroethyl)sulfonamido)butanamide]",100 to 250 nM
12,"CC(C)(C)[C@H](NC(=O)C(F)(F)F)C(=O)N1C[C@H]2[C@@H]([C@H]1C(=O)N[C@H](C#N)Cc1cc3cc(F)c(F)cc3[nH]c1=O)C2(C)C [Compound 177, (1R,2S,5S)—N—((S)-1-Cyano-2-(6,7-difluoro-2-oxo-1,2-dihydroquinolin-3-yl)ethyl)-3-((S)-3,3-dimethyl-2-(2,2,2-trifluoroacetamido)butanoyl)-6,6-dimethyl-3-azabicyclo[3.1.0]hexane-2-carboxamide]",50 to 100 nM
13,"CC(C)(C)[C@H](NC(=O)C(F)(F)F)C(=O)N1C[C@H]2C([C@H]1C(=O)NC(C#N)Cc1cc3cc(Cl)ccc3[nH]c1=O)C2(C)C (stereo in doubt) [Compound 104, (1R,2S,5S)—N-(2-(6-Chloro-2-oxo-1,2-dihydroquinolin-3-yl)-1-cyanoethyl)-3-((S)-3,3-dimethyl-2-(2,2,2-trifluoroacetamido)butanoyl)-6,6-dimethyl-3-azabicyclo[3.1.0]hexane-2-carboxamide]",50 to 100 nM
14,"Cc1ccc2c(c1)CC(C[C@@H](C#N)NC(=O)[C@@H]1[C@@H]3[C@H](CN1C(=O)[C@@H](NC(=O)C(F)(F)F)C(C)(C)C)C3(C)C)C(=O)N2 (stereo partly drawn) [Compound 120, (1R,2S,5S)—N-[(1S)-1-Cyano-2-(6-methyl-2-oxo-3,4-dihydro-1H-quinolin-3-yl)ethyl]-3-[(2S)-3,3-dimethyl-2-[(2,2,2-trifluoroacetyl)amino]butanoyl]-6,6-dimethyl-3-azabicyclo[3.1.0]hexane-2-carboxamide]",< 50 nM
15,"Cc1ccc2[nH]c(=O)c(CC(C#N)NC(=O)[C@@H]3C4[C@H](CN3C(=O)[C@@H](Nc3nc(C)cs3)C(C)(C)C)C4(C)C)cc2c1 (stereo in doubt) [Compound 151, (1R,2S,5S)—N-(1-Cyano-2-(6-methyl-2-oxo-1,2-dihydroquinolin-3-yl)ethyl)-3-((S)-3,3-dimethyl-2-((4-methylthiazol-2-yl)amino)butanoyl)-6,6-dimethyl-3-azabicyclo[3.1.0]hexane-2-carboxamide]",500 to 1000 nM
16,"Cc1ccc2[nH]c(=O)c(C[C@@H](C#N)NC(=O)[C@@H]3[C@@H]4[C@H](CN3C(=O)Cc3cc(C)no3)C4(C)C)cc2c1 [Compound 192, (1R,2S,5S)—N—((S)-1-Cyano-2-(6-methyl-2-oxo-1,2-dihydroquinolin-3-yl)ethyl)-6,6-dimethyl-3-(2-(3-methylisoxazol-5-yl)acetyl)-3-azabicyclo[3.1.0]hexane-2-carboxamide]",≥ 1000 nM

# Same assay, conditions: Table B; comparison with known compound K; read-out: IC50, nM (3CL Protease enzymatic activity, comparative data)
row,Structure (SMILES),IC50
1,"CC(C)(C)[C@H](NC(=O)C(F)(F)F)C(=O)N1C[C@H]2C([C@H]1C(=O)NC(C#N)Cc1cc3cc(Cl)ccc3[nH]c1=O)C2(C)C (stereo in doubt) [Compound 104, (1R,2S,5S)—N-(2-(6-Chloro-2-oxo-1,2-dihydroquinolin-3-yl)-1-cyanoethyl)-3-((S)-3,3-dimethyl-2-(2,2,2-trifluoroacetamido)butanoyl)-6,6-dimethyl-3-azabicyclo[3.1.0]hexane-2-carboxamide]",89 nM
2,"CC(C)(C)[C@H](NC(=O)C(F)(F)F)C(=O)N1C[C@H]2[C@@H]([C@H]1C(=O)N[C@H](C#N)C[C@@H]1CCCNC1=O)C2(C)C [K, reference compound]",1290 nM
